Results as given in patent US20050215644A1, “Methods for increasing neurotransmitter levels using hydroxycitric acid” (InterHealth Nutraceuticals, Inc., priority 2004, published 2005).

Assays:
[1] = test system: rat brain cortex neurotransmitters; experiment: effects of an HCA extract and fluoxetine on rat brain cortex neurotransmitters (reverse phase HPLC with electrochemical detection); assay type: in vivo; conditions: for increase in DOPAC / increase in cortex DA / increase in cortex 5-HT: after 90 days; for increase in DOPAC / increase in cortex DA / increase in cortex 5-HT / decrease in cortex HIAA / decrease in DA / decrease in cortex HVA: p<0.05; for decrease in cortex HIAA / decrease in cortex 5-HT / decrease in DA / decrease in cortex HVA: 15 mg/kg per day oral
Description: […] The 5% HCA dose corresponds to 25-times the recommended dose of HCA. Animals were euthanized after 30, 60 and 90 days. Brain cortices were analyzed for serotonin (5-HT), its metabolite 5-hydroxyindoleacetic acid (HIAA), dopamine (DA), and its metabolites 3, 4-dihydroxyphenylacetic acid (DOPAC) and homovanillic acid (HVA) content utilizing reverse phase HPLC with electrochemical detection.

[2] = test system: isolated rat brain cortex; conditions: cited from earlier work
[3] = first of three values (day 30 by analogy with b27)
[4] = second of three values (day 60 by analogy with b27)
[5] = third of three values (day 90 by analogy with b27)

O=C(O)CC(O)(C(=O)O)C(O)C(=O)O (single isomer, unassigned; (-)) [HCA, (−)-hydroxycitric acid]
increase in DOPAC ([1]; HCA 0.02% oral): 23%
increase in cortex DA ([1]; HCA 0.02% oral): 10%
increase in cortex HVA ([1]; HCA 0.02% oral, day 90, p<0.05): 12%
increase in cortex 5-HT ([1]; HCA 0.2% of diet (10 mg per day) oral): 11%
increase in cortex 5-HT ([1]; HCA 2% of diet (100 mg per day) oral): 9%
increase in DOPAC ([1]; HCA 2% of diet oral): 26%
increase in cortex DA ([1]; HCA 2% of diet oral): 15%
increase in cortex HVA ([1]; HCA 2% of diet oral, day 90, p<0.05): 15%
increase in cortex 5-HT ([1]; HCA 5% of diet (250 mg per day) oral): 12%
increase in DOPAC ([1]; HCA 5% of diet oral): 29%
increase in cortex DA ([1]; HCA 5% of diet oral): 18%
increase in cortex HVA ([1]; HCA 5% of diet oral, day 90, p<0.05): 13%
changes in HIAA ([1]; any of the HCA treatment groups (0.2, 2, 5% of diet; 30, 60, 90 days)): No changes
efflux of 5-HT ([2]; HCA applied on its own): concentration-dependent increase
effect on baseline of spontaneous tritium efflux [2]: altered the baseline
effect on potassium-evoked release of 5-HT [2]: no significant effect

CNCCC(Oc1ccc(C(F)(F)F)cc1)c1ccccc1 (centres unmarked) [fluoxetine, reference compound]
decrease in cortex HIAA ([1]; 30 days post-treatment): 19%
decrease in cortex HIAA ([1]; 60 days post-treatment): 15%
decrease in cortex HIAA ([1]; 90 days post-treatment): 17%
decrease in cortex 5-HT ([1]; day 30, p<0.05): 9%
decrease in cortex 5-HT ([1]; day 60, p<0.05): 7%
decrease in cortex 5-HT ([1]; day 90, p<0.05): 8%
decrease in DA [1, 3]: 18%
decrease in cortex HVA [1, 3]: 17%
decrease in DA [1, 4]: 15%
decrease in cortex HVA [1, 4]: 13%
decrease in DA [1, 5]: 19%
decrease in cortex HVA [1, 5]: 14%
changes in cortex DOPAC ([1]; all fluoxetine groups (15 mg/kg per day oral; 30, 60, 90 days)): No changes
